Measurements published in PMC6149668, “In Silico Identification and In Vitro Evaluation of Natural Inhibitors of Leishmania major Pteridine Reductase I” (Molecules : A Journal of Synthetic Chemistry and Natural …, 2017).
pEC50, pIC50: −log10 of the molar value. Read-outs that look alike come from different tables or passages of the source. Each block holds one compound with its values, some of them ahead of it.

Experiments:
[1] = Solubility under the LmPTR1 assay conditions; assay type: physicochemical; details: sodium phosphate buffer pH 6, DMSO 0.1–1%
Description: In order to assess the inhibitory activity of the compounds identified in silico, spectrophotometric inhibition assays were performed on recombinant LmPTR1, measuring the decreasing concentration of NADPH at 340 nm as a linear kinetic parameter for LmPTR1 activity at saturating concentrations of NADPH (co-substrate) and folic acid (substrate). First, each in silico hit was added to a concentration of 50 µM, and the resulting linear plots of absorbance vs. time were compared with those recorded in the absence of an inhibitor. […] For 2,3-dehydrosilybin A (1), complete inhibition could not be achieved. The maximum of inhibition achieved with this compound was 64% at a concentration of 50 µM. […] Plots of the inhibitory activity as a function of concentration for compounds 1 to 6 are shown in the Supplementary Materials Figures S10–S15, and the resulting IC50 and EC50 values are reported in Table 1.
The determination of the inhibitory activity of the in silico hits was carried out by a UV-Vis spectrophotometric assay on recombinantly produced LmPTR1. […] Reference measurements without the addition of inhibitors were used to determine the full catalytic activity (100% value), and subsequent measurements with inhibitory compounds were calculated accordingly. […] No inhibition of LmPTR1 could be detected by DMSO itself at the mentioned concentrations. […]

[2] = target: T1, recombinant LmPTR1 (Leishmania major pteridine reductase I) (Leishmania major, UniProt Q01782); experiment: biochemical; details: for % Inhibition at c = 50 µM: inhibitor 50 µM
T1 construct: poly-His (N); made in house; host or cells: E. coli BL21 (DE3)
Description: In order to assess the inhibitory activity of the compounds identified in silico, spectrophotometric inhibition assays were performed on recombinant LmPTR1, measuring the decreasing concentration of NADPH at 340 nm as a linear kinetic parameter for LmPTR1 activity at saturating concentrations of NADPH (co-substrate) and folic acid (substrate). First, each in silico hit was added to a concentration of 50 µM, and the resulting linear plots of absorbance vs. time were compared with those recorded in the absence of an inhibitor.
The determination of the inhibitory activity of the in silico hits was carried out by a UV-Vis spectrophotometric assay on recombinantly produced LmPTR1. In order to assess the catalytic activity of LmPTR1, the oxidation of NADPH to NADP^+ was followed with a Hitachi U-2900 UV-Vis spectrophotometer at 340 nm as a linear kinetic parameter. Reference measurements without the addition of inhibitors were used to determine the full catalytic activity (100% value), and subsequent measurements with inhibitory compounds were calculated accordingly. The total assay volume of 1 mL consisted of sodium phosphate buffer (50 mM NaH2PO4, 100 mM NaCl, pH 6), 250 µM NADPH, 35 µg LmPTR1, 22.5 µM folic acid, and varying inhibitor concentrations. The tested inhibitors were dissolved in DMSO (10 mM stock solutions), and appropriate volumes were added to the assays to obtain the desired assay concentrations in such a way that a DMSO concentration between 0.1–1% resulted. […] Initial tests were performed at an inhibitor concentration of 50 µM in triplicate.

[3] = pH 6, inhibitor 50 µM, 250 µM NADPH, 22.5 µM folic acid, pH 6, triplicate, n.i. = no inhibition at 50 µM, read-out: % Inhibition at c = 50 µM
[4] = in brackets: 95% confidence interval, n = 4 to 7 concentrations, non-linear regression, read-out: IC50
[5] = 250 µM NADPH, 22.5 µM folic acid, pH 6, triplicate, n.i. = no inhibition at 50 µM

T1 sequence (Q01782 whole entry): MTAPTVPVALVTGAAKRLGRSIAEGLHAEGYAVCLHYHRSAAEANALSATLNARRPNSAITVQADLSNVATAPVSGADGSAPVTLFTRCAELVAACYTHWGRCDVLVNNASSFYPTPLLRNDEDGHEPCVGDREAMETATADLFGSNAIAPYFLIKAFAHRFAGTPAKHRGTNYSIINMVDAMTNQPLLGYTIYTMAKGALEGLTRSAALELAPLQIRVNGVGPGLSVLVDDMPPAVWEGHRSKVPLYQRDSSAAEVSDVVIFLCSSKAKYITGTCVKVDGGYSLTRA

Compound: COc1cc([C@H]2Oc3cc(-c4oc5cc(O)cc(O)c5c(=O)c4O)ccc3O[C@@H]2CO)ccc1O [2,3-dehydrosilybin A]
solubility under the assay conditions [1]: limited solubility
pEC50 [2]: 5.14
inhibition at 50 µM ([2]; at a concentration of 50 µM, concentration-effect curve, read-out: maximum of inhibition achieved): 64%
inhibition at 50 µM [2, 3]: > 50%

inhibition at 50 µM [2, 3]: 24%
Compound: O=C(O[C@@H]1Cc2c(O)cc(O)cc2O[C@@H]1c1ccc(O)c(O)c1)c1cc(O)c(O)c(O)c1 [(−)-epicatechin-3-gallate]

Compound: O=c1cc(-c2ccc(O)cc2)oc2cc(OC3OC(CO)C(O)C(O)C3O)cc(O)c12 (stereo not shown) [apigenin-7-glucoside]
pIC50 [2]: 4.36
inhibition at 50 µM [2, 3]: > 50%

Compound: CC(C)=CCc1c(O)cc2oc3cc(O)c(O)c(CCC(C)(C)O)c3c(=O)c2c1O [garcinone C]
pIC50 [2, 4]: 4.58

Compound: COc1cc([C@@H]2Oc3ccc([C@H]4Oc5cc(O)cc(O)c5C(=O)[C@@H]4O)cc3O[C@H]2CO)ccc1O [isosilybin B]
inhibition at 50 µM ([2]; pH 6, read-out: % Inhibition at c = 50 µM): 26%

inhibition at 50 µM [2, 3]: 22%
Compound: COc1cc(O)c(CC=C(C)C)c2c1C(=O)CC(c1ccc(O)cc1)O2 (stereo not shown) [isoxanthohumol]

% Inhibition at c = 50 µM [2, 5]: n.i.
Compound: COc1ccc([C@H]2OC[C@H]3[C@@H]2CO[C@@H]3c2cc(OC)c(OC)c(OC)c2)cc1OC [magnolin]

Compound: O=c1c(O)c(-c2cc(O)c(O)c(O)c2)oc2cc(O)cc(O)c12 [myricetin]
pIC50 [2, 4]: 4.68
inhibition at 50 µM ([2]; pH 6, read-out: % Inhibition at c = 50 µM, inhibitor 50 µM, 250 µM NADPH, 22.5 µM folic acid, pH 6, triplicate, n.i. = no inhibition at 50 µM): > 50%

inhibition at 50 µM [2, 3]: 20%
Compound: O=C(/C=C/c1ccc(O)c(O)c1)O[C@H](Cc1ccc(O)c(O)c1)C(=O)O [rosmarinic acid]

Compound: O=C(/C=C/c1ccc(O)c(O)c1/C=C/c1ccc(O)c(O)c1)O[C@H](Cc1ccc(O)c(O)c1)C(=O)O [salvianolic acid A]
pIC50 [2]: 4.37
inhibition at 50 µM [2, 3]: > 50%

inhibition at 50 µM [2, 3]: 14%
Compound: COc1cc([C@H]2Oc3cc([C@H]4Oc5cc(O)cc(O)c5C(=O)[C@@H]4O)ccc3O[C@@H]2CO)ccc1O [silybin A]

inhibition at 50 µM [2, 3]: 19%
Compound: COc1cc([C@@H]2Oc3cc([C@H]4Oc5cc(O)cc(O)c5C(=O)[C@@H]4O)ccc3O[C@H]2CO)ccc1O [silybin B]

inhibition at 50 µM [2, 3]: 24%
Compound: COc1cc([C@@H]2Oc3c(O)cc([C@H]4Oc5cc(O)cc(O)c5C(=O)[C@@H]4O)cc3[C@H]2CO)ccc1O [silychristin]

Compound: C=C(C)[C@H](CC=C(C)C)Cc1c(O)cc(O)c2c1O[C@H](c1ccc(O)cc1O)CC2=O [sophoraflavanone G]
pIC50 [2, 4]: 4.72

Compound: icariside II
% Inhibition at c = 50 µM [2, 5]: 35%

Compound: phillyrin
% Inhibition at c = 50 µM [2, 5]: n.i.
